The subject of the experiment is clown fish. Kind of experiment: Skin coloration of clown fish on supplemented diet. The experiment is classed as in vivo. The settings on record: synthetic astaxanthin 1000 mg/kg granulated diet, compositions below 50 mg/kg astaxanthin in final feed.

For `CC1=C(/C=C/C(C)=C/C=C/C(C)=C/C=C/C=C(C)/C=C/C=C(C)/C=C/C2=C(C)C(=O)[C@@H](O)CC2(C)C)C(C)(C)C[C@H](O)C1=O` [synthetic astaxanthin, astaxanthin], the skin coloration entry was “do not to significantly alter skin coloration”.

Source of the values: US20050255147A1, “Composition for dietary enrichment” (ZOOLIFE INTERNATIONAL LIMITED, priority 2002, published 2005).
